What was measured:
[1] = Tissue exposure in skeletal muscle (gastrocnemius) of aged DIO mice; type: in vivo, mouse; conditions: 30 mg/kg oral once daily, 5 weeks, FIG. 6A
Protocol: (§1) All animal studies were performed in accordance with Charles River Laboratories animal welfare protocols. Male Diet-Induced Obese (DIO) C57BL/6NTac mice 28 weeks of age were fed a high fat diet. 20 mice were randomized based on bodyweight into two cohorts of 10 mice each. Five mice were assigned to each treatment group in each cohort (i) vehicle or (ii) Compound (I) at 30 mg/kg via (n=10 total animals per treatment). […] Mice were acclimatized to the treadmill room for one hour on days of training or endurance runs. After an initial 5 min exploration period the treadmill belt moved at 5 m/min for 10 min with the motivation grid intensity set to 0.46 mA. Mice required a few visits to the grid to learn to walk/run on the moving belt and avoid the electric grid shock. After two acclimatization periods the mice learned to avoid the electric grid and stay on the moving belt, with fewer visits to the electric grid. The maximum speed for the endurance run was capped at 16.5 m/min based on speed acclimation runs, which represents the speed at which 25% of animals are running in the top ⅔ of the treadmill at a 5° slope. The mice were considered exhausted if they stayed on the electric grid with no limbs on the treadmill belt for 10 seconds.
Before and after the exhaustion run, blood samples were obtained via a tail vein nick. […]

[2] = molecular target: T1, PPARδ (Mus musculus, UniProt P35396); assay: Mouse EC50 (PPARδ agonist)
T1 sequence (P35396 1-440): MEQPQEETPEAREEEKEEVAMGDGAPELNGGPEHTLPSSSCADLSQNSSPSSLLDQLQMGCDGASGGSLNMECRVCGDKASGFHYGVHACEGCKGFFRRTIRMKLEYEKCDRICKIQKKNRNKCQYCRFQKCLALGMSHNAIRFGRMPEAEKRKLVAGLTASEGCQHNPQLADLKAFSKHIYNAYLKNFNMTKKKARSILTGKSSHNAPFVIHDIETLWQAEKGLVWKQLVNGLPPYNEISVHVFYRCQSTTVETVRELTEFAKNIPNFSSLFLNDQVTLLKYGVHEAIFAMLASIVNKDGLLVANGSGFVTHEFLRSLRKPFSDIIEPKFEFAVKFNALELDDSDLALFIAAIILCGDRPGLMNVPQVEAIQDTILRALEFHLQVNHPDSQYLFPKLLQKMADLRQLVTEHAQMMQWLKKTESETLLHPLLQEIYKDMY

[3] = 26-week rat GLP toxicity study; type: in vivo
[4] = system: PPARδ target genes and FAO genes in quadriceps muscle; assay: Gene expression analysis of quadriceps muscle in aged DIO mice; type: in vivo, mouse; conditions: 30 mg/kg oral once daily, 5 weeks
Protocol: as §1
Before and after the exhaustion run, blood samples were obtained via a tail vein nick. At the end of the study (day 45) whole blood along with gastrocnemius and quadriceps skeletal muscles were collected following CO2 euthanasia.

[5] = system: PMM patient fibroblasts; assay: Fatty acid OXPHOS in PMM patient fibroblasts (FIG. 4B, all lines); type: cell-based, human; conditions: 3, 9 and 30 nM
Protocol: LHON/Leigh cells were treated with DMSO or Compound (I) in complete media supplemented with 0.5 mM carnitine for 24 hours prior to assaying. Treated cells were trypsinized, collected in Krebs-Henseleit Buffer (KHB) and pelleted.
Palmitate-mediated OXPHOS was measured using an Oxygraph-2k (Oroboros Instruments). Cells (1×10^6) in KHB were loaded into each chamber with 250 μM BSA or BSA-conjugated palmitate. KHB was added to reach a final volume of 2 mL. Respiration was measured at 37° C. as previously described in Zhang, Z., et al., Primary respiratory chain disease causes tissue-specific dysregulation of the global transcriptome and nutrient-sensing signaling network. (1932-6203). Briefly, BSA and BSA-conjugated palmitate treated cells were analyzed simultaneously in two separate chambers. […]
Data were analyzed using DatLab6 software. […] Non-mitochondrial respiration was measured after addition of Rotenone and Antimycin A sequentially (ROX, residual oxygen consumption, background) and subtracted from maximal respiration values. […]
FAO was measured using a Seahorse XF96 (Seahorse Biosciences). […]

Cc1cnc(-c2ccc(C(F)(F)F)cc2)n1Cc1ccccc1OCCC[C@@H](C)CC(=O)O [Compound (I), (R)-3-Methyl-6-(2-((5-methyl-2-(4-(trifluoromethyl)phenyl)-1H-imidazol-1-yl)methyl)-phenoxy)hexanoic acid]
skeletal muscle exposure [1]: detectable and covered the mouse EC50 | EC50 [2]: 0.014 µM | no observed adverse effect level (NOAEL) [3]: highest tested dose | Angptl4 expression increase in quadriceps muscle ([4]; FIG. 5A): 3.5 fold | Pdk4 expression increase in quadriceps muscle ([4]; FIG. 5B): 2.5 fold | Acadvl expression (FAO gene) ([4]; FIG. 5C-5E): significantly increased | Cpt1a expression (FAO gene) ([4]; FIG. 5C-5E): significantly increased | Slc25a20 expression (FAO gene) ([4]; FIG. 5C-5E): significantly increased | fatty acid OXPHOS [5]: increased
